# Source: patent publication US9723840B2 (SYNGENTA PARTICIPATIONS AG, priority 2013, dated 2017)
# Legend:
# Assay type in all cases: in vivo
# [1] = system: Abutilon theophrasti; experiment: Pre-emergence herbicidal activity, ABUTH; parameters: key: 5=total damage to plant; 0=no damage to plant; conditions: 1000 g/Ha, pre-emergence spray, evaluated after 13 days, scale 0-5
# Procedure: (§1) Seeds of a variety of test species were sown in standard soil in pots. After cultivation for one day (pre-emergence) under controlled conditions in a glasshouse (at 24/16° C., day/night; 14 hours light; 65% humidity), the plants were sprayed with an aqueous spray solution derived from the formulation of the technical active ingredient in acetone/water (50:50) solution containing 0.5% Tween 20 (polyoxyethelyene sorbitan monolaurate, CAS RN 9005-64-5). The test plants were then grown in a glasshouse under controlled conditions (at 24/16° C., day/night; 14 hours light; 65% humidity) and watered twice daily. After 13 days, the test was evaluated (5=total damage to plant; 0=no damage to plant).
# [2] = system: Alopecurus myosuroides; experiment: Post-emergence herbicidal activity, ALOMY; parameters: key: 5=total damage to plant; 0=no damage to plant; conditions: 1000 g/Ha, post-emergence spray (8 days cultivation), evaluated after 13 days, scale 0-5
# Procedure: (§2) Seeds of a variety of test species were sown in standard soil in pots. After 8 days cultivation (post-emergence) under controlled conditions in a glasshouse (at 24/16° C., day/night; 14 hours light; 65% humidity), the plants were sprayed with an aqueous spray solution derived from the formulation of the technical active ingredient in acetone/water (50:50) solution containing 0.5% Tween 20 (polyoxyethelyene sorbitan monolaurate, CAS RN 9005-64-5). The test plants were then grown in a glasshouse under controlled conditions (at 24/16° C., day/night; 14 hours light; 65% humidity) and watered twice daily. After 13 days, the test was evaluated (5=total damage to plant; 0=no damage to plant).
# [3] = system: Echinochloa crus-galli; experiment: Post-emergence herbicidal activity, ECHCG; parameters: key: 5=total damage to plant; 0=no damage to plant; conditions: 1000 g/Ha, post-emergence spray (8 days cultivation), evaluated after 13 days, scale 0-5
# Procedure: as §2
# [4] = system: Zea mays; experiment: Pre-emergence herbicidal activity, ZEAMX; conditions: 1000 g/Ha, pre-emergence spray, evaluated after 13 days, scale 0-5
# Procedure: as §1
# [5] = system: Alopecurus myosuroides; experiment: Pre-emergence herbicidal activity, ALOMY; conditions: 1000 g/Ha, pre-emergence spray, evaluated after 13 days, scale 0-5
# Procedure: as §1
# [6] = system: Amaranthus retroflexus; experiment: Pre-emergence herbicidal activity, AMARE; parameters: key: 5=total damage to plant; 0=no damage to plant; conditions: 1000 g/Ha, pre-emergence spray, evaluated after 13 days, scale 0-5
# Procedure: as §1
# [7] = system: Abutilon theophrasti; experiment: Post-emergence herbicidal activity, ABUTH; parameters: key: 5=total damage to plant; 0=no damage to plant; conditions: 1000 g/Ha, post-emergence spray (8 days cultivation), evaluated after 13 days, scale 0-5
# Procedure: as §2
# [8] = system: Amaranthus retroflexus; experiment: Post-emergence herbicidal activity, AMARE; parameters: key: 5=total damage to plant; 0=no damage to plant; conditions: 1000 g/Ha, post-emergence spray (8 days cultivation), evaluated after 13 days, scale 0-5
# Procedure: as §2
# [9] = system: Echinochloa crus-galli; experiment: Pre-emergence herbicidal activity, ECHCG; parameters: key: 5=total damage to plant; 0=no damage to plant; conditions: 1000 g/Ha, pre-emergence spray, evaluated after 13 days, scale 0-5
# Procedure: as §1
# [10] = system: Setaria faberi; experiment: Pre-emergence herbicidal activity, SETFA; parameters: key: 5=total damage to plant; 0=no damage to plant; conditions: 1000 g/Ha, pre-emergence spray, evaluated after 13 days, scale 0-5
# Procedure: as §1
# [11] = system: Zea mays; experiment: Post-emergence herbicidal activity, ZEAMX; parameters: key: 5=total damage to plant; 0=no damage to plant; conditions: 1000 g/Ha, post-emergence spray (8 days cultivation), evaluated after 13 days, scale 0-5
# Procedure: as §2
# [12] = system: Setaria faberi; experiment: Post-emergence herbicidal activity, SETFA; parameters: key: 5=total damage to plant; 0=no damage to plant; conditions: 1000 g/Ha, post-emergence spray (8 days cultivation), evaluated after 13 days, scale 0-5
# Procedure: as §2
SMILES,"ABUTH damage score, application pre-emergence [1]","ALOMY damage score, application post-emergence [2]","ECHCG damage score, application post-emergence [3]","ZEAMX damage score, application pre-emergence [4]","ALOMY damage score, application pre-emergence [5]","AMARE damage score, application pre-emergence [6]","ABUTH damage score, application post-emergence [7]","AMARE damage score, application post-emergence [8]","ECHCG damage score, application pre-emergence [9]","SETFA damage score, application pre-emergence [10]","ZEAMX damage score, application post-emergence [11]","SETFA damage score, application post-emergence [12]"
CC1C(O)N(c2ccc(C(=O)NC(C)(C)C#N)nn2)C(=O)N1C (stereo not drawn) [Example A13],5,4,3,3,4,5,5,5,4,4,1,5
"CC1C(O)N(c2cc(C(C)(C)F)c(Cl)nn2)C(=O)N1C (stereo not drawn) [Example A2, 1-[6-chloro-5-(1-fluoro-1-methyl-ethyl)pyridazin-3-yl]-5-hydroxy-3,4-dimethyl-imidazolidin-2-one]",5,4,5,3,4,5,5,5,4,5,5,5
CC1C(O)N(c2ccc(C(=O)NC(C)(C)C)nn2)C(=O)N1C (stereo not drawn) [Example A15],5,5,5,3,4,5,5,5,5,4,5,5
"CON1C(=O)N(c2cc(C(C)(C)F)c(Cl)nn2)C(O)C1C (stereo not drawn) [Example A6, 1-[6-chloro-5-(1-fluoro-1-methyl-ethyl)pyridazin-3-yl]-5-hydroxy-3-methoxy-4-methyl-imidazolidin-2-one]",5,4,5,3,3,5,5,5,4,4,5,5
"CCOC1C(O)N(c2cc(C(C)(C)F)c(Cl)nn2)C(=O)N1C (stereo not drawn) [Example A9, 1-[6-chloro-5-(1-fluoro-1-methyl-ethyl)pyridazin-3-yl]-4-ethoxy-5-hydroxy-3-methyl-imidazolidin-2-one]",5,5,5,3,4,5,5,5,5,5,5,5
CON1C(=O)N(c2cc(C(C)(F)F)c(Cl)nn2)C(O)C1C (stereo not drawn) [Example A12],5,5,5,3,3,5,5,5,5,5,3,5
CN1CC(O)N(c2cc(C(C)(C)F)c(Cl)nn2)C1=O (stereo not drawn) [Example A1],5,5,5,4,4,5,5,5,5,5,5,5
"CN1CC(O)N(c2cc(C(F)(F)F)c(Cl)nn2)C1=O (stereo not drawn) [Example A5, 3-[6-chloro-5-(trifluoromethyl)pyridazin-3-yl]-4-hydroxy-1-methyl-imidazolidin-2-one]",5,4,5,2,4,5,5,5,4,5,4,5
CCOC1C(O)N(c2cc(C(C)(F)F)c(Cl)nn2)C(=O)N1C (stereo not drawn) [Example A10],5,5,5,4,4,5,5,5,4,5,4,5
